In PubChem BioAssay (NCI):
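GI50: concentration for 50% inhibition of growth. The concentration for full growth arrest is given as TGI.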

Legend:
Assay in all cases: NCI anticancer screen, dose series, 384-well format; in the data active = GI50 below about 0.43 µM; inactive = the rest
786-0 renal = tested on: 786-0 renal
A498 renal = tested on: A498 renal
A549 NSCLC = tested on: A549 NSCLC
ACHN renal = tested on: ACHN renal
BT-549 breast = tested on: BT-549 breast
CAKI-1 renal = tested on: CAKI-1 renal
CCRF-CEM leukemia = tested on: CCRF-CEM leukemia
COLO 205 colon = tested on: COLO 205 colon
DU-145 prostate = tested on: DU-145 prostate
EKVX NSCLC = tested on: EKVX NSCLC
HCC-2998 colon = tested on: HCC-2998 colon
HCT-15 colon = tested on: HCT-15 colon
HL-60(TB) leukemia = tested on: HL-60(TB) leukemia
HOP-62 NSCLC = tested on: HOP-62 NSCLC
HOP-92 NSCLC = tested on: HOP-92 NSCLC
HS 578T breast = tested on: HS 578T breast
HT29 colon = tested on: HT29 colon
IGROV1 ovarian = tested on: IGROV1 ovarian
K-562 leukemia = tested on: K-562 leukemia
KM12 colon = tested on: KM12 colon
LOX IMVI melanoma = tested on: LOX IMVI melanoma
M14 melanoma = tested on: M14 melanoma
MALME-3M melanoma = tested on: MALME-3M melanoma
MCF7 breast = tested on: MCF7 breast
MDA-MB-231 breast = tested on: MDA-MB-231 breast
MDA-MB-435 melanoma = tested on: MDA-MB-435 melanoma
MDA-MB-468 breast = tested on: MDA-MB-468 breast
MOLT-4 leukemia = tested on: MOLT-4 leukemia
NCI-H226 lung = tested on: NCI-H226 lung
NCI-H23 lung = tested on: NCI-H23 lung
NCI-H322M lung = tested on: NCI-H322M lung
NCI-H460 NSCLC = tested on: NCI-H460 NSCLC
NCI-H522 lung = tested on: NCI-H522 lung
NCI/ADR-RES ovarian = tested on: NCI/ADR-RES ovarian
OVCAR-3 ovarian = tested on: OVCAR-3 ovarian
OVCAR-4 ovarian = tested on: OVCAR-4 ovarian
OVCAR-5 ovarian = tested on: OVCAR-5 ovarian
OVCAR-8 ovarian = tested on: OVCAR-8 ovarian
PC-3 prostate = tested on: PC-3 prostate
RPMI-8226 leukemia = tested on: RPMI-8226 leukemia
RXF 393 renal = tested on: RXF 393 renal
SF-268 CNS = tested on: SF-268 CNS
SF-295 CNS = tested on: SF-295 CNS
SF-539 CNS = tested on: SF-539 CNS
SK-MEL-28 melanoma = tested on: SK-MEL-28 melanoma
SK-MEL-5 melanoma = tested on: SK-MEL-5 melanoma
SK-OV-3 ovarian = tested on: SK-OV-3 ovarian
SN12C renal = tested on: SN12C renal
SNB-19 CNS = tested on: SNB-19 CNS
SNB-75 CNS = tested on: SNB-75 CNS
SR leukemia = tested on: SR leukemia
SW-620 colon = tested on: SW-620 colon
T-47D breast = tested on: T-47D breast
TK-10 renal = tested on: TK-10 renal
UACC-257 melanoma = tested on: UACC-257 melanoma
UACC-62 melanoma = tested on: UACC-62 melanoma
UO-31 renal = tested on: UO-31 renal

CC(C)(O)c1coc(S(=O)(=O)/N=C(\O)Nc2c3c(cc4c2CCC4)CCC3)c1
inactive: GI50 ([…]-0 renal) > 100 µM | GI50 (A498 renal) > 100 µM | GI50 (A549 NSCLC) > 100 µM | GI50 (ACHN renal) > 100 µM | GI50 (BT-549 breast) > 100 µM | GI50 (CAKI-1 renal) > 100 µM | GI50 (CCRF-CEM leukemia) > 100 µM | GI50 (COLO 205 colon) > 100 µM | GI50 (DU-145 prostate) > 100 µM | GI50 (EKVX NSCLC) > 100 µM | GI50 (HCC-2998 colon) > 100 µM | GI50 (HCT-15 colon) > 100 µM | GI50 (HL-60(TB) leukemia) > 100 µM | GI50 (HOP-62 NSCLC) > 100 µM | GI50 (HOP-92 NSCLC) > 100 µM | GI50 (HS 578T breast) > 100 µM | GI50 (HT29 colon) > 100 µM | GI50 (IGROV1 ovarian) > 100 µM | GI50 (K-562 leukemia) > 100 µM | GI50 (KM12 colon) > 100 µM | GI50 (LOX IMVI melanoma) > 100 µM | GI50 (M14 melanoma) > 100 µM | GI50 (MALME-3M melanoma) > 100 µM | GI50 (MCF7 breast) > 100 µM | GI50 (MDA-MB-231 breast) > 100 µM | GI50 (MDA-MB-435 melanoma) > 100 µM | GI50 (MDA-MB-468 breast) > 100 µM | GI50 (MOLT-4 leukemia) > 100 µM | GI50 (NCI-H226 lung) > 100 µM | GI50 (NCI-H23 lung) > 100 µM | GI50 (NCI-H322M lung) > 100 µM | GI50 (NCI-H460 NSCLC) > 100 µM | GI50 (NCI-H522 lung) > 100 µM | GI50 (NCI/ADR-RES ovarian) > 100 µM | GI50 (OVCAR-3 ovarian) > 100 µM | GI50 (OVCAR-4 ovarian) > 100 µM | GI50 (OVCAR-5 ovarian) > 100 µM | GI50 (OVCAR-8 ovarian) > 100 µM | GI50 (PC-3 prostate) > 100 µM | GI50 (RPMI-8226 leukemia) > 100 µM | GI50 (RXF 393 renal) > 100 µM | GI50 (SF-268 CNS) > 100 µM | GI50 (SF-295 CNS) > 100 µM | GI50 (SF-539 CNS) > 100 µM | GI50 (SK-MEL-28 melanoma) > 100 µM | GI50 (SK-MEL-5 melanoma) > 100 µM | GI50 (SK-OV-3 ovarian) > 100 µM | GI50 (SN12C renal) > 100 µM | GI50 (SNB-19 CNS) > 100 µM | GI50 (SNB-75 CNS) > 100 µM | GI50 (SR leukemia) > 100 µM | GI50 (SW-620 colon) > 100 µM | GI50 (T-47D breast) > 100 µM | GI50 (TK-10 renal) > 100 µM | GI50 (UACC-257 melanoma) > 100 µM | GI50 (UACC-62 melanoma) > 100 µM | GI50 (UO-31 renal) > 100 µM
> 100 µM: TGI (786-0 renal) | TGI (A498 renal) | TGI (A549 NSCLC) | TGI (ACHN renal) | TGI (BT-549 breast) | TGI (CAKI-1 renal) | TGI (CCRF-CEM leukemia) | TGI (COLO 205 colon) | TGI (DU-145 prostate) | TGI (EKVX NSCLC) | TGI (HCC-2998 colon) | TGI (HCT-15 colon) | TGI (HL-60(TB) leukemia) | TGI (HOP-62 NSCLC) | TGI (HOP-92 NSCLC) | TGI (HS 578T breast) | TGI (HT29 colon) | TGI (IGROV1 ovarian) | TGI (K-562 leukemia) | TGI (KM12 colon) | TGI (LOX IMVI melanoma) | TGI (M14 melanoma) | TGI (MALME-3M melanoma) | TGI (MCF7 breast) | TGI (MDA-MB-231 breast) | TGI (MDA-MB-435 melanoma) | TGI (MDA-MB-468 breast) | TGI (MOLT-4 leukemia) | TGI (NCI-H226 lung) | TGI (NCI-H23 lung) | TGI (NCI-H322M lung) | TGI (NCI-H460 NSCLC) | TGI (NCI-H522 lung) | TGI (NCI/ADR-RES ovarian) | TGI (OVCAR-3 ovarian) | TGI (OVCAR-4 ovarian) | TGI (OVCAR-5 ovarian) | TGI (OVCAR-8 ovarian) | TGI (PC-3 prostate) | TGI (RPMI-8226 leukemia) | TGI (RXF 393 renal) | TGI (SF-268 CNS) | TGI (SF-295 CNS) | TGI (SF-539 CNS) | TGI (SK-MEL-28 melanoma) | TGI (SK-MEL-5 melanoma) | TGI (SK-OV-3 ovarian) | TGI (SN12C renal) | TGI (SNB-19 CNS) | TGI (SNB-75 CNS) | TGI (SR leukemia) | TGI (SW-620 colon) | TGI (T-47D breast) | TGI (TK-10 renal) | TGI (UACC-257 melanoma) | TGI (UACC-62 melanoma) | TGI (UO-31 renal)
